According to patent US9796706B2, “Inhibitors of Jun N-terminal kinase” (IMAGO PHARMACEUTICALS, INC., priority 2009, dated 2017):

Assays:
Format in all cases: biochemical
Settings in all cases: procedures of Example 14 (TR-FRET)
JNK3 = JNK3 (Homo sapiens (Human), UniProt P53779); test: JNK3 TR-FRET kinase assay (Example 14)
Description: (§1) 14.3. Active JNK 1, 2 and 3 TR-FRET Assay
(§2) (1) Assay buffer #1 with 0.0025% Tween and 1 mM DTT was prepared using JNK buffer stock solution.
(§3) (2) Assay buffer #2 with 0.025% BSA was prepared using the assay buffer #1.
(§4) (3) Test compound solution preparation: 5× compound solution was prepared using assay buffer #1 with 5% DMSO. The compound solution (10 μl/well) was added to a 384-well plate (Corning, Cat No. 3654).
(§5) (4) aJNK1, 2 or 3 preparation: aJNK stock (100 μg/ml) at −80° C. was thawed on ice and an aJNK (1.6 ng/ml) solution was prepared using assay buffer #2. The aJNK solution (20 μl/well) was added to the plate and the plate was shaken. The enzyme was incubated with the compound at RT for 10 min. (5) ATP/substrate solution preparation: ATP and substrate stocks were thawed on ice. 2.5×ATP/substrate (e.g., 25 μM or 2.5 mM ATP/50 nM EPIW-1) was prepared using assay buffer #1. The ATP/substrate (20 μl/well) was added to the plate and the plate was shaken. The plate was incubated at RT for 15 min. Note: In an exemplary assay, the final ATP concentration was about 1 mM. (6) EDTA preparation: 30 mM EDTA was prepared using 0.5M EDTA stock and assay buffer #1. The EDTA (10 μl/well) was added to the plate to quench the enzyme reaction and the plate was shaken well. (7) Detection reagent preparation: Eu-63 and SA-XL stocks were thawed on ice. 4× Eu-63/SA-XL (2 nM Eu-63/9.4 nM SA-XL) was prepared using JNK detection buffer. The Eu-63/SA-XL solution (20 μl/well) was added to the plate and the plate was shaken. The plate was incubated at RT for 1 hr before reading the plate on LJL using ratiometric method named HTRF.
(§6) 14.4. Coupled JNK 1, 2 and 3 TR-FRET Assay
(§7) (1) Assay buffer with 0.0025% Tween, 0.01% BSA, and 1 mM DTT was prepared using JNK buffer stock solution.
(§8) (2) Test compound solution preparation: 5× compound solution, including EDTA background, was prepared using assay buffer with 5% DMSO. The compound solution (10 μl/well) was added to a 384-well plate (Corning, Cat No. 3654).
(§9) (3) uJNK1,2, or 3 activation reaction preparation: uJNK activation solution was prepared using assay buffer (1.6 ng/ml MKK4, 1.6 ng/ml MKK7, 16 ng/ml uJNK, and 20 uM ATP final). The uJNK activation solution (35 μl/well) was added to the plate, the plate was shaken, and the reaction mixture was incubated with compound at 30° C. for 60 min. (4) c-Jun substrate solution preparation: 50 nM EPIW-1, c-Jun peptide, was prepared using assay buffer (15 nM final). The EPIW-1 solution (15 μl/well) was added to the plate, the plate was shaken and incubated at 30° C. for 60 min. (5) EDTA preparation: 30 mM EDTA was prepared using 0.5M EDTA stock and assay buffer. The EDTA (10 μl/well) was added to the plate to quench the enzyme reaction and the plate was shaken well. (6) Detection reagent preparation: Eu-73 and SA-XL stocks were thawed on ice. 4× Eu-73/SA-XL (2 nM Eu-73/9.4 nM SA-XL) were prepared using JNK detection buffer. The Eu-73/SA-XL solution (20 μl/well) was added to the plate. The plate was shaken and incubated at RT for 1 hr before reading the plate on LJL using ratiometric method named HTRF.

JNK1 = JNK1 (Homo sapiens (Human), UniProt P45983); test: JNK1 TR-FRET kinase assay (Example 14)
Description: as §1, §2, §3, §4, §5, §6, §7, §8, §9

JNK2 = JNK2 (Homo sapiens (Human), UniProt P45984); test: JNK2 TR-FRET kinase assay (Example 14)
Description: as §1, §2, §3, §4, §5, §6, §7, §8, §9

Chain of JNK3 (P53779 whole entry, species assumed): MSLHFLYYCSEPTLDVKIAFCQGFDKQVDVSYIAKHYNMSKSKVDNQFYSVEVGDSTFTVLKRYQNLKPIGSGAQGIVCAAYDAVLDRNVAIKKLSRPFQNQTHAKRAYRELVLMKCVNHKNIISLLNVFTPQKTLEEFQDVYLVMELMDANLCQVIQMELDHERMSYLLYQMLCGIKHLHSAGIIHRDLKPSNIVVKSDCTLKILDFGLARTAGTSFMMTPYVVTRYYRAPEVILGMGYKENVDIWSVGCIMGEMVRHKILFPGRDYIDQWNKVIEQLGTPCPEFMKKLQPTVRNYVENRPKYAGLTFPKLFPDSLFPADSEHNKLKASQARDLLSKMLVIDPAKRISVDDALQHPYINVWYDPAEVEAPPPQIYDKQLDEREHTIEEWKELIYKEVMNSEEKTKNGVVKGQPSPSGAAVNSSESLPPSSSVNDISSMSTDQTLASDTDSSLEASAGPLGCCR
Chain of JNK1 (P45983 other isoform, or with tags, fused parts or gaps isoform P45983-2, species assumed): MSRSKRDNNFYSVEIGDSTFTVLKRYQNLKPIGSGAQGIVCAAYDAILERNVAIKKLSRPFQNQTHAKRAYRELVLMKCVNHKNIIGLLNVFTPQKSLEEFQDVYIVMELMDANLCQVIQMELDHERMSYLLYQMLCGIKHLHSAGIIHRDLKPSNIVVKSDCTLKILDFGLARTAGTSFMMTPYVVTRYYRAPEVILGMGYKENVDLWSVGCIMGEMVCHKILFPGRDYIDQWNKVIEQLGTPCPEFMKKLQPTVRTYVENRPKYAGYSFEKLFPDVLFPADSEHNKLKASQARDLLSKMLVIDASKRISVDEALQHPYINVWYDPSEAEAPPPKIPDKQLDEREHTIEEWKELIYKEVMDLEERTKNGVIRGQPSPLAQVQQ
Chain of JNK2 (P45984 whole entry, species assumed): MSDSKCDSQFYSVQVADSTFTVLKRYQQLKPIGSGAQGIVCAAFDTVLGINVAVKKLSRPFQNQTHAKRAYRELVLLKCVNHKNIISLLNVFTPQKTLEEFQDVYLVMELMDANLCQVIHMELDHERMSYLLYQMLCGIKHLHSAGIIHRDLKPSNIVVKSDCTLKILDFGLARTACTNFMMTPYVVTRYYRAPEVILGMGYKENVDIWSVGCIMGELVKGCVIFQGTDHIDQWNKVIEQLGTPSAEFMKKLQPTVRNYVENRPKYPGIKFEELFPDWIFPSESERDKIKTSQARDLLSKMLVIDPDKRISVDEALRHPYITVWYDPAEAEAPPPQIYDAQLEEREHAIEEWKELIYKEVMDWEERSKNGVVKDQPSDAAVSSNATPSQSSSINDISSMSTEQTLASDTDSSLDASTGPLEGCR

SMILES	IC50 (JNK3) [µM]	IC50 (JNK1) [µM]	IC50 (JNK2) [µM]
O=C(CN1C(=O)CCc2ccccc21)Nc1ccsc1-c1cscn1 [2-(2-oxo-3,4-dihydroquinolin-1(2H)-yl)-N-(2-(thiazol-4-yl)thiophen-3-yl)acetamide]	0.1 to 10	0.1 to 10	0.1 to 10
O=C(Cn1c(=O)ccc2cc(C(F)(F)F)ccc21)Nc1ccsc1-c1cscn1 [2-(2-oxo-6-(trifluoromethyl)quinolin-1(2H)-yl)-N-(2-(thiazol-4-yl)thiophen-3-yl)acetamide]	< 0.1	< 0.1	0.1 to 10
Cc1csc(NC(=O)Cc2ccc(OCCn3ccnc3)cc2)c1-c1ncn[nH]1 [2-(4-(2-(1H-imidazol-1-yl)ethoxy)phenyl)-N-(4-methyl-3-(1H-1,2,4-triazol-5-yl)thiophen-2-yl)acetamide]	0.1 to 10	0.1 to 10	0.1 to 10
O=C(Cc1ccc(OCCCN2CCCCC2)cc1)Nc1ccsc1-c1cscn1 [2-(4-(3-(piperidin-1-yl)propoxy)phenyl)-N-(2-(thiazol-4-yl)thiophen-3-yl)acetamide]	0.1 to 10	0.1 to 10	0.1 to 10
COc1ccc(CC(=O)Nc2ccsc2-c2cn(C)cn2)cc1 [2-(4-methoxyphenyl)-N-(2-(1-methyl-1H-imidazol-4-yl)thiophen-3-yl)acetamide]	> 10	> 10	> 50
COc1ccc(CC(=O)Nc2ccsc2-c2c[nH]c(C)n2)cc1 [2-(4-methoxyphenyl)-N-(2-(2-methyl-1H-imidazol-4-yl)thiophen-3-yl)acetamide]	> 10	> 10	> 50
COc1ccc(CC(=O)Nc2ccsc2N2CCOC2=O)cc1 [2-(4-methoxyphenyl)-N-(2-(2-oxooxazolidin-3-yl)thiophen-3-yl)acetamide]	> 10	> 50	> 50
COc1ccc(CC(=O)Nc2ccsc2-c2nc(-c3ccncc3)n[nH]2)cc1 [2-(4-methoxyphenyl)-N-(2-(3-(pyridin-4-yl)-1H-1,2,4-triazol-5-yl)thiophen-3-yl)acetamide]	> 10	0.1 to 10	> 50
COc1ccc(CC(=O)Nc2ccsc2-c2nc(C3CCCO3)n[nH]2)cc1 (stereo not drawn) [2-(4-methoxyphenyl)-N-(2-(3-(tetrahydrofuran-2-yl)-1H-1,2,4-triazol-5-yl)thiophen-3-yl)acetamide]	0.1 to 10	0.1 to 10	0.1 to 10
COc1ccc(CC(=O)Nc2ccsc2-c2nc(C(F)(F)F)n[nH]2)cc1 [2-(4-methoxyphenyl)-N-(2-(3-(trifluoromethyl)-1H-1,2,4-triazol-5-yl)thiophen-3-yl)acetamide]	0.1 to 10	0.1 to 10	> 10
COc1ccc(CC(=O)Nc2ccsc2-n2cnc(C)c2)cc1 [2-(4-methoxyphenyl)-N-(2-(4-methyl-1H-imidazol-1-yl)thiophen-3-yl)acetamide]	> 50	> 50	> 50
COc1ccc(CC(=O)Nc2ccsc2-n2cc(C)cn2)cc1 [2-(4-methoxyphenyl)-N-(2-(4-methyl-1H-pyrazol-1-yl)thiophen-3-yl)acetamide]	> 10	> 10	> 10
COc1ccc(CC(=O)Nc2ccsc2-c2nnc(C)o2)cc1 [2-(4-methoxyphenyl)-N-(2-(5-methyl-1,3,4-oxadiazol-2-yl)thiophen-3-yl)acetamide]	0.1 to 10	0.1 to 10	> 50
COc1ccc(CC(=O)Nc2ccsc2-c2cnccn2)cc1 [2-(4-methoxyphenyl)-N-(2-(pyrazin-2-yl)thiophen-3-yl)acetamide]	0.1 to 10	0.1 to 10	0.1 to 10
COc1ccc(CC(=O)Nc2sccc2-c2nnn(C)n2)cc1 [2-(4-methoxyphenyl)-N-(3-(2-methyl-2H-tetrazol-5-yl)thiophen-2-yl)acetamide]	0.1 to 10	0.1 to 10	> 10
COc1ccc(CC(=O)Nc2sccc2-c2noc(C)n2)cc1 [2-(4-methoxyphenyl)-N-(3-(5-methyl-1,2,4-oxadiazol-3-yl)thiophen-2-yl)acetamide]	0.1 to 10	0.1 to 10	0.1 to 10
COc1ccc(CC(=O)Nc2scc(C)c2-c2nc(C)n[nH]2)cc1 [2-(4-methoxyphenyl)-N-(4-methyl-3-(3-methyl-1H-1,2,4-triazol-5-yl)thiophen-2-yl)acetamide]	0.1 to 10	0.1 to 10	0.1 to 10
O=C(Cn1c(=O)ccc2cc(Br)ccc21)Nc1scc(Br)c1-c1nc[nH]n1 [2-(6-bromo-2-oxoquinolin-1(2H)-yl)-N-(4-bromo-3-(1H-1,2,4-triazol-3-yl)thiophen-2-yl)acetamide]	< 0.1	< 0.1	< 0.1
O=C(Cn1c(=O)ccc2cc(Br)ccc21)Nc1scc(Cl)c1-c1nc[nH]n1 [2-(6-bromo-2-oxoquinolin-1(2H)-yl)-N-(4-chloro-3-(1H-1,2,4-triazol-3-yl)thiophen-2-yl)acetamide]	< 0.1	< 0.1	< 0.1
O=C(CN1C(=O)CCc2ccc(Br)cc21)Nc1scc(Br)c1-c1ncn[nH]1 [2-(7-bromo-2-oxo-3,4-dihydroquinolin-1(2H)-yl)-N-(4-bromo-3-(1H-1,2,4-triazol-5-yl)thiophen-2-yl)acetamide]	0.1 to 10	0.1 to 10	0.1 to 10
O=C(Cc1cccc2ncsc12)Nc1scc(Br)c1-c1ncn[nH]1 [2-(benzo[d]thiazol-7-yl)-N-(4-bromo-3-(1H-1,2,4-triazol-5-yl)thiophen-2-yl)acetamide]	< 0.1	< 0.1	0.1 to 10
COc1nc(-c2sccc2NC(=O)Cc2cccc3cnccc23)cs1 [2-(isoquinolin-5-yl)-N-(2-(2-methoxythiazol-4-yl)thiophen-3-yl)acetamide]	0.1 to 10	0.1 to 10	> 10
Cc1csc(-c2sccc2NC(=O)Cc2cccc3cnccc23)n1 [2-(isoquinolin-5-yl)-N-(2-(4-methylthiazol-2-yl)thiophen-3-yl)acetamide]	0.1 to 10	0.1 to 10	0.1 to 10
Cc1cnc(-c2sccc2NC(=O)Cc2cccc3cnccc23)s1 [2-(isoquinolin-5-yl)-N-(2-(5-methylthiazol-2-yl)thiophen-3-yl)acetamide]	0.1 to 10	0.1 to 10	0.1 to 10
O=C(Cc1cccc2cnccc12)Nc1ccsc1-c1ncco1 [2-(isoquinolin-5-yl)-N-(2-(oxazol-2-yl)thiophen-3-yl)acetamide]	0.1 to 10	0.1 to 10	0.1 to 10
O=C(Cc1cccc2cnccc12)Nc1ccsc1-c1nccs1 [2-(isoquinolin-5-yl)-N-(2-(thiazol-2-yl)thiophen-3-yl)acetamide]	0.1 to 10	0.1 to 10	0.1 to 10
O=C(Cc1cccc2cnccc12)Nc1ccsc1-c1cscn1 [2-(isoquinolin-5-yl)-N-(2-(thiazol-4-yl)thiophen-3-yl)acetamide]	0.1 to 10	0.1 to 10	0.1 to 10
O=C(Cc1cccc2cnccc12)Nc1scnc1-c1cnccn1 [2-(isoquinolin-5-yl)-N-(4-(pyrazin-2-yl)thiazol-5-yl)acetamide]	0.1 to 10	0.1 to 10	0.1 to 10
O=C(Cc1cccc2ccccc12)Nc1ccsc1-c1nnco1 [N-(2-(1,3,4-oxadiazol-2-yl)thiophen-3-yl)-2-(naphthalen-1-yl)acetamide]	0.1 to 10	0.1 to 10	> 10
